Data on two substances can be found in patent US20160319277A1, “METHODS OF IMPROVED PROTEIN PRODUCTION USING MIRNAs AND SIRNAs” (THE JOHNS HOPKINS UNIVERSITY, priority 2015, published 2016).

For this data set, the system named is HEK 293 cell lines expressing luciferase, GPC3-hFc, NTSR1-GFP, SERT-GFP. Nature of the data set: Validation transfection of siRNAs against ten selected genes in four HEK 293 cell lines expressing different reporter proteins. The format is cell-based, human. The following applies: 40 nM, 1 representative siRNA per gene; for expression of reporter proteins: luciferase, GPC3-hFc, NTSR1-GFP, SERT-GFP. The protocol: Ten targeted genes were selected and tested in four HEK 293 cell lines expressing different reporter proteins, glycan-3 hFc-fision protein (GPC3-hFc), neurotensin receptor type 1-GFP (NTSR1-GFP) and serotonin transporter-GFP (SERT-GFP), using 1 representative siRNA for each gene. Transfection was performed in 12-well plate format. 500 μL of serum free DMEM media containing siRNA and Lipofectamine™ RNAiMax was incubated in each well for 20 min at ambient temperature and 500 μL DMEM containing 20% FBS and cells was then added for transfection. The final siRNA concentration in each well was 40 nM. Lipofectamine™ RNAiMax volume and cell seeding number in each well have been optimized for each cell line (Table 2).
5 days after transfection, clarified cell culture supernatant was used for determination of GPC3-hFc concentration by ELISA and cells were detached and counted by trypan blue exclusion using a CEDEX™ cell quantification system (Roche, Mannheim, Germany). AffiniPure™ F(ab′)2 Fragment Goat Anti-Human IgG (min X Bov, Ms, Rb Sr Prot, Cat. 109-006-170, Jackson Immunology, 5 μg/mL in PBS) was used to coat a 96-well plate (50 μL per well) at 4° C. overnight. After blocking the plate with 2% BSA in PBS, 50 μl of pre-diluted cell culture supernatant was added, and the plate was incubated at room temperature for 1 h to allow binding to occur. After the plate was washed twice with PBS containing 0.05% Tween 20, Peroxidase-conjugated AffiniPure™ Goat-anti-human IgG (Cat. 109-035-098, Jackson Immunology) was added at 1:4000 dilution (50 μL/well). Following incubation at room temperature for 1 hr, the plate was washed 4 times and signals were detected with Peroxidase Substrate System (KPL).
3 days after transfection, cells were induced with 1 μg/mL tetracycline. 24 hours later, cells from each well were detached with non-enzymatic cell dissociation buffer (Gibco, Cat. No. 13150-016) and washed twice with cold PBS. Cell densities were adjusted to 0.5 million cells/ml with PBS and then subjected to flow cytometry analysis. Green fluorescence was measured with Guava Easycyte 5HT™ and Incyte™ software (Millipore). The green fluorescence signal and cell gating were adjusted using uninduced T-REx-293-NTSR1-GFP cells, with more than 99.5% of the cells in low fluorescence range (<100). The setting was kept the same for all cell samples.

Turning to “INTS1 siRNA: 1 representative siRNA for gene INTS1 used in validation transfection; sequence not stated (guide AGAUCUUUGUCAAGGUGUATT; other strand without entry, further chemistry not given here; listed as Homo sapiens)”, the viable cell number result was “significantly reduced viable cell number” and the “expression of reporter proteins” value is on record as “consistently improved”.
Turning to “PPP2R1A siRNA: 1 representative siRNA for gene PPP2R1A used in validation transfection; sequence not stated (guide CUUCGACAGUACUUCCGGATT; other strand without entry, further chemistry not given here; listed as Homo sapiens)”, the viable cell number result is reported as “minimal negative effects” and the “expression of reporter proteins” value is “consistently improved”.
